{"source": "patent US4863899A", "about": "“Biologically active polypeptides” (priority 1987, dated 1989)", "key": {"[1]": {"tested_on": "TGFα-induced DNA synthesis in quiescent HFF", "assay": "Cell proliferation assay, inhibition of TGFα-induced mitogenesis", "format": "cell-based, human", "details": "3H-methylthymidine incorporation in quiescent HFF induced by 1 nM TGFα", "experimental": "(§1) HFF cells were grown to confluence in 48-well cluster dishes in DMEM-10% FCS and brought to quiescence by starvation for 2 days in DMEM-0.5% FCS. Mitogens and peptides were incubated with cells at 37° C. for 18 hours prior to a 4 hour pulse with 1 μCi [^3 H]methyl-thymidine (NEN) and trichloroacetic acid precipitable radioactivity was determined."}, "[2]": {"target": "T1, EGF receptors on A-431 human epidermoid carcinoma cells (Homo sapiens, UniProt P00533)", "T1 construct": "A-431 human epidermoid carcinoma cells or human foreskin fibroblasts (HFF); endogenous in cells; host or cells: A-431 human epidermoid carcinoma cells", "assay": "Radioreceptor assay, 125I-EGF binding to cells (Example XII)", "experimental": "(§2) A-431 human epidermoid carcinoma cells or human foreskin fibroblasts (HFF), established from primary cultures, were grown to confluence in 24-well cluster dishes (Costar) in Dulbecco's […] (DMEM, Gibco) containing 10% fetal calf serum (FCS, Hyclone). EGF was radio-iodinated as above to between 4×10^4 and 8×10^4 cpm/ng protein. Cells were incubated at 4° C. for 60 minutes with 1 nM [^125 I]EGF in the presence of inhibitor peptides in DMEM ([…]; 20 mM Hepes) containing 0.1% BSA. Cells were washed 3× with cold buffer, lysed with 0.1 N NaOH, and cell-associated radioactivity was measured (γ-counter). Nonspecific binding assessed in the presence of a 100× excess of cold EGF was less than 5% and 10% of the specific binding for A-431 and HFF cells, respectively."}, "[3]": {"target": "T2, EGF receptors on human foreskin fibroblasts (HFF) (Homo sapiens, UniProt P00533)", "T2 construct": "human foreskin fibroblasts (HFF), established from primary cultures; endogenous in cells; host or cells: human foreskin fibroblasts (HFF), primary-culture derived", "assay": "Radioreceptor assay, 125I-EGF binding to cells (Example XII)", "experimental": "as §2"}, "anti-KLH-peptide 1 IgG": {"tested_on": "anti-KLH-peptide 1 IgG", "assay": "Solid phase RIA, 125I anti-KLH-peptide 1 IgG on BSA-peptide 1", "format": "binding, rabbit", "experimental": "TGF peptide 1 was coupled to keyhole limpet hemocyanin (KLH) or bovine serum albumin (BSA) by thiol/maleimide linkage (King et al. (1979) J. Immunol. Methods 28, pp. 201-206). Carrier-peptide complexes were purified by gel filtration. An average of 60 moles peptide/mole KLH and 20 moles peptide/mole BSA was achieved. Rabbits were immunized with the KLH-peptide 1 conjugate by multiple subcutaneous (s.c.) and intramuscular (i.m.) injections of 2 mg protein in complete Freund's adjuvant. Rabbits were boosted s.c. every two weeks with the immunogen in incomplete Freund's adjuvant. The IgG fraction of the antiserum after 5 boosts was used for immunoassays and radiolabeled using Na^125 I (NEN) and Enzymobeads (Bio-Rad) to 4×10^5 cpm/μg protein. Polyvinyl chloride 96-well plates (Costar) were coated with 200 μg/mL BSA-peptide 1 conjugate and countercoated with 10% normal rabbit serum in phosphate-buffered saline. Plates were incubated for 4 hours at 37° C. with [^125 I]anti-KLH-peptide 1 IgG (50,000 cpm/well) in the presence or absence of inhibitors, washed and individual wells were counted."}, "[4]": {"tested_on": "EGF-induced DNA synthesis in quiescent HFF", "assay": "Cell proliferation assay, inhibition of EGF-induced mitogenesis", "format": "cell-based, human", "details": "3H-methylthymidine incorporation in quiescent HFF induced by 1 nM EGF", "experimental": "as §1"}, "[5]": {"tested_on": "antiserum against peptide III", "assay": "Radioimmunoassay, inhibition of precipitation of 125I-peptide III", "format": "binding, rabbit", "details": "for Relative Inhibitory Activity: half-maximal inhibitory concentration relative to peptide III, standard RIA, > = highest concentration tested", "experimental": "Rabbits were immunized by subcutaneous injection of 1 mg of conjugate injected subcutaneously at four separate sites. Two booster injections were administered at bi-weekly intervals following the initial injection. The serum used in this study was collected eighty days after the initial injection. An immunoglobulin fraction of this serum was prepared by ammonium sulfate precipitation. The product of antibodies specific for immunizing peptide was monitored with a solid phase enzyme-linked immunoabsorbent assay.\nReactants were mixed in a final volume of 50 microliters of a solution containing: 20 mM sodium phosphate, at pH 7.4; 200 mM NaCl: 40 mM dithiothreitol; 0.1% (w:v) BSA; 0.1% (w:v) NaN3 : ^125 I-peptide III; (10^4 cpm); antiserum at a final dilution of 1/15,000; and other additions, as specified. The reaction was initiated by the addition of antiserum and continued at 23° C. for 90 minutes. An equal volume of 10% formalin-fixed Staphalococcus A (Pansorbin, Calbiochem) was then added and incubation was continued for an additional 30 minutes at 23° C. The immunoadsorbant was removed by sedimentation through a cushion of 10% (w:v) sucrose and the amount of bound ^125 I-peptide III was determined using a gamma counter. Under these conditions, approximately 25% of ^125 I-peptide was bound by antibody in the absence of competitor. The amount of bound peptide III was corrected for non-specific binding measured in the absence of antibody (less than 5% of the total) and expressed as a percentage of maximal binding. Concentrations of competitors were expressed as the amount of peptide III required to give an equivalent inhibition of precipitation."}, "second degree burns": {"tested_on": "second degree burns", "assay": "Wound healing of second degree burns, planimetry (Example VII)", "format": "in vivo, Yorkshire piglet", "details": "once a day, after 7 days", "experimental": "Another experiment was performed to measure the effect of the analog of human TGF described above on the healing of second degree burns. The experimental conditions were similar to those described above. However, the following changes were made in the procedures. One Yorkshire piglet was anesthetized with Ketamine and each of 12 burns was made using the template for 11 seconds per burn. After each blister was removed, the wounds were treated once a day with one of the following:\nAfter 7 days, the eschar was removed."}, "[6]": {"details": "A-431 cells, read-out: IC50, inhibition of 125I-EGF binding"}, "[7]": {"details": "1 nM 125I-EGF, read-out: Binding IC50 (M) HFF"}}, "note": "Where two headings read alike, the source gives them in different places. Positions of bridges follow the written chain, without caps; N, C: chain ends. Residues, ends and D or L forms follow the SMILES beside them. No end group written: not given here.", "data": [{"molecule": "CC(C)[C@@H]1NC(=O)CNC(=O)[C@H](C(C)C)NC(=O)[C@H](Cc2ccc(O)cc2)NC(=O)CNC(=O)[C@H](CO)NC(=O)[C@H](Cc2c[nH]cn2)NC(=O)[C@@H](N)CSSC[C@@H](C(=O)O)NC(=O)[C@H](CCCNC(=N)N)NC1=O", "note": "[Peptide 1] (H-CHSGYVGVRC-OH; disulfide 1-10)", "values": [{"measurement": "IC50", "setting": "[1]", "value": "> 10000", "unit": "nM"}, {"measurement": "IC50", "setting": "[2]", "value": "8e-05", "unit": "M"}, {"measurement": "inhibition of 125I-EGF binding to A-431 cells, in words", "setting": "[2]; at >10^-6 M", "value": "partially inhibited"}, {"measurement": "IC50", "setting": "[3]", "value": "6e-05", "unit": "M"}, {"measurement": "inhibition of antibody reaction with BSA-TGF peptide", "setting": "anti-KLH-peptide 1 IgG", "value": "inhibited in a concentration-dependent fashion"}, {"measurement": "IC50", "setting": "[4]", "value": "> 10000", "unit": "nM"}]}, {"molecule": "CC(=O)N[C@H]1CSSC[C@@H](C(N)=O)NC(=O)[C@H](CCCNC(=N)N)NC(=O)[C@H](C(C)C)NC(=O)CNC(=O)[C@H](C(C)C)NC(=O)[C@H](Cc2ccc(O)cc2)NC(=O)CNC(=O)[C@H](CO)NC(=O)[C@H](Cc2c[nH]cn2)NC1=O", "note": "[Peptide 2] (Ac-CHSGYVGVRC-NH2; disulfide 1-10)", "values": [{"measurement": "IC50", "setting": "[1]", "value": 3000, "unit": "nM"}, {"measurement": "binding potency as % of EGF or TGF-α", "setting": "[2]; A-431 cells", "value": "approximately 0.02%"}, {"measurement": "IC50", "setting": "[2]; [6]", "value": "4e-06", "unit": "M"}, {"measurement": "IC50", "setting": "[3]; [7]", "value": "2e-06", "unit": "M"}, {"measurement": "IC50", "setting": "[4]", "value": 5000, "unit": "nM"}]}, {"molecule": "Ac-Cys-His-Ser-Gly-Tyr-Val-Gly-Ala-Arg-Cys-OMe (Ac-CHSGYVGARC-OMe; disulfide 1-10 (inferred)) [Peptide 3]", "values": [{"measurement": "IC50", "setting": "[1]", "value": 500, "unit": "nM"}, {"measurement": "IC50", "setting": "[2]; 1 nM 125I-EGF, read-out: Binding IC50 (M) A-431", "value": "4e-07", "unit": "M"}, {"measurement": "binding potency as % of EGF or TGF-α", "setting": "[2]; A-431 cells", "value": "~0.2", "unit": "%"}, {"measurement": "IC50", "setting": "[2]; [6]", "value": "4e-07", "unit": "M"}, {"measurement": "IC50", "setting": "[3]; [7]", "value": "3e-07", "unit": "M"}, {"measurement": "IC50", "setting": "[4]", "value": 600, "unit": "nM"}]}, {"molecule": "CHSGYVGVRC (cysteine pairing not given here) [Peptide II]", "values": [{"measurement": "highest concentration without inhibition of precipitation of 125I-peptide III", "setting": "[5]", "value": "> 1.1", "unit": "µM"}, {"measurement": "Relative Inhibitory Activity", "setting": "[5]", "value": "> 1500"}]}, {"molecule": "CHSGYVGVRCEHADLLA (cysteine pairing not given here) [Peptide III]", "values": [{"measurement": "Relative Inhibitory Activity", "setting": "[5]", "value": 1}]}, {"molecule": "VVSHFNKCPDSHT [Peptide I]", "values": [{"measurement": "inhibition of precipitation of 125I-peptide III, in words", "setting": "[5]; compared with peptide III", "value": "ineffective as a competitor"}, {"measurement": "Relative Inhibitory Activity", "setting": "[5]", "value": "> 1500"}]}, {"molecule": "hEGF: Human EGF", "values": [{"measurement": "PERCENTAGE OF WOUND HEALED Burn A", "setting": "second degree burns; 0.1 μg/ml in Silvadene", "value": 17, "unit": "percentage"}, {"measurement": "PERCENTAGE OF WOUND HEALED Burn B", "setting": "second degree burns; 0.1 μg/ml in Silvadene", "value": 14, "unit": "percentage"}, {"measurement": "PERCENTAGE OF WOUND HEALED Burn A", "setting": "second degree burns; 1 μg/ml in Silvadene", "value": 14, "unit": "percentage"}, {"measurement": "PERCENTAGE OF WOUND HEALED Burn B", "setting": "second degree burns; 1 μg/ml in Silvadene", "value": 17, "unit": "percentage"}]}]}
